Assay results published in patent US20230041743A1, “1,8-NAPHTHYRIDIN-2-ONE COMPOUNDS FOR THE TREATMENT OF AUTOIMMUNE DISEASE” (Hoffmann-La Roche Inc., priority 2019, published 2023).

Target: T1, human TLR9 (Homo sapiens, UniProt Q9NR96)
T1 construct: host or cells: HEK293 (HEK-Blue hTLR9)
T1 sequence (Q9NR96 26-1032): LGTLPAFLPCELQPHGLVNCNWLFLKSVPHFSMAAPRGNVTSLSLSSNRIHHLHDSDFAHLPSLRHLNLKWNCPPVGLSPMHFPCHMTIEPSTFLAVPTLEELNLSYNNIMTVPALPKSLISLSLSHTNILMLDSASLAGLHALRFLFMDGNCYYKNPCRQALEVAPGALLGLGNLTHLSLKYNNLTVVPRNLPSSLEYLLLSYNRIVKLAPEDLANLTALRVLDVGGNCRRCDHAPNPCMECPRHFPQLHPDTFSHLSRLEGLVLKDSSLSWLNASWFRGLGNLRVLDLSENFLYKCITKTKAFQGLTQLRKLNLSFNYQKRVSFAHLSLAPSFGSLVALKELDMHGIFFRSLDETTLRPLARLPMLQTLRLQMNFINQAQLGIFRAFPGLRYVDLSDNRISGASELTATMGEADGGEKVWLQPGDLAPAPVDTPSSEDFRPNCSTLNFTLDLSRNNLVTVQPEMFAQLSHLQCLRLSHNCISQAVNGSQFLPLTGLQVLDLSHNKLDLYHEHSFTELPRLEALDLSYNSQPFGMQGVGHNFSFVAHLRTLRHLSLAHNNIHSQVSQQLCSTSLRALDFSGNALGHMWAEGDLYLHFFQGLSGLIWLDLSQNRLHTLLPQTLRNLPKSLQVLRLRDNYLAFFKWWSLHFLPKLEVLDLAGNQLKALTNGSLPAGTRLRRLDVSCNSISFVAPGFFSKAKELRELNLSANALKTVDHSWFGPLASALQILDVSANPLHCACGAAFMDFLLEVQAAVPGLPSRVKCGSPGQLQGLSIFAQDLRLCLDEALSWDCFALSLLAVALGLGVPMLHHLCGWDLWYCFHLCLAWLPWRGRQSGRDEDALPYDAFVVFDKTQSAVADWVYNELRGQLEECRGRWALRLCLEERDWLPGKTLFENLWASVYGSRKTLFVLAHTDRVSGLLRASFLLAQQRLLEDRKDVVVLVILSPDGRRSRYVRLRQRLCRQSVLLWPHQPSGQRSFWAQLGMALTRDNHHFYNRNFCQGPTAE
Assay: HEK293-Blue-hTLR-9 cells assay (SEAP reporter, ODN2006 stimulation)
Format: cell-based
Conditions: HEK293-Blue-hTLR9 cells, ODN2006 ligand, 20 hrs incubation; read-out: HEK/hTLR9 IC50
Excerpt: HEK293-Blue-hTLR-9 Cells Assay:
A stable HEK293-Blue-hTLR-9 cell line was purchased from InvivoGen (Cat. #: hkb-htlr9, San Diego, Calif., USA). These cells were originally designed for studying the stimulation of human TLR9 by monitoring the activation of NF-κB. A SEAP (secreted embryonic alkaline phosphatase) reporter gene was placed under the control of the IFN-β minimal promoter fused to five NF-κB and AP-1-binding sites. The SEAP was induced by activating NF-κB and AP-1 via stimulating HEK-Blue hTLR9 cells with TLR9 ligands. Therefore the reporter expression was declined by TLR9 antagonist under the stimulation of a ligand, such as ODN2006 (Cat. #: tlrl-2006-1, Invivogen, San Diego, Calif., USA), for incubation of 20 hrs. The cell culture supernatant SEAP reporter activity was determined using QUANTI-Blue™ kit (Cat. #: rep-qb1, Invivogen, San Diego, Calif., USA) at a wavelength of 640 nm, a detection medium that turns purple or blue in the presence of alkaline phosphatase.
HEK293-Blue-hTLR9 cells were incubated at a density of 250,000˜450,000 cells/mL in a volume of 170 μL in a 96-well plate in Dulbecco's Modified Eagle's medium (DMEM) containing 4.5 g/L glucose, 50 U/mL penicillin, […], 2 mM L-glutamine, 10% (v/v) heat-inactivated fetal bovine serum with addition of 20 μL test compound in a serial dilution in the presence of final DMSO at 1% and 10 μL of 20 uM ODN2006 in above DMEM, perform incubation under 37° C. in a CO2 incubator for 20 hrs. Then 20 μL of the supernatant from each well was incubated with 180 μL Quanti-blue substrate solution at 37° C. for 2 h and the absorbance was read at 620˜655 nm using a spectrophotometer. The signaling pathway that TLR9 activation leads to downstream NF-κB activation has been widely accepted, and therefore similar reporter assay was modified for evaluating TLR9 antagonist.

`C[C@@H]1CN(c2cc(=O)n(C)c3ncccc23)C[C@@H]2c3ccc(N4C[C@H]5C[C@@H]4CN5)cc3CN12` [Example 20, 4-[(4R,10bS)-8-[(1R,4R)-2,5-diazabicyclo[2.2.1]heptan-2-yl]-4-methyl-3,4,6,10b-tetrahydro-1H-pyrazino[2,1-a]isoindol-2-yl]-1-methyl-1,8-naphthyridin-2-one] and `C[C@@H]1CN(c2cc(=O)n(C)c3ncccc23)C[C@@H]2c3ccc(N4CC5CCC(C4)N5)cc3CN12` [Example 21, 4-[(4R,10bS)-8-(3,8-diazabicyclo[3.2.1]octan-3-yl)-4-methyl-3,4,6,10b-tetrahydro-1H-pyrazino[2,1-a]isoindol-2-yl]-1-methyl-1,8-naphthyridin-2-one] are within 1.5-fold of each other in IC50: 96 nM for the first, 138 nM for the second.

`C[C@@H]1CN(c2cc(=O)n(C)c3ncccc23)C[C@@H]2c3ccc(N4CCOC[C@H](N)C4)cc3CN12` [Example 22, 4-[(4R,10bS)-8-[(6R)-6-amino-1,4-oxazepan-4-yl]-4-methyl-3,4,6,10b-tetrahydro-1H-pyrazino[2,1-a]isoindol-2-yl]-1-methyl-1,8-naphthyridin-2-one] and `C[C@@H]1CN(c2cc(=O)n(C)c3ncccc23)C[C@@H]2c3ccc(C4CCNC4)cc3CN12` (stereo partly drawn) [Example 26, 4-[(4R,10bS)-4-methyl-8-pyrrolidin-3-yl-3,4,6,10b-tetrahydro-1H-pyrazino[2,1-a]isoindol-2-yl]-1-methyl-1,8-naphthyridin-2-one] are within 1.5-fold of each other in IC50: 113 nM for the first, 132 nM for the second.

`C[C@@H]1CN(c2cc(=O)n(C)c3ncccc23)C[C@@H]2c3ccc(OCCN(C)C)cc3CN12` [Example 23, 4-[(4R,10bS)-8-[2-(dimethylamino)ethoxy]-4-methyl-3,4,6,10b-tetrahydro-1H-pyrazino[2,1-a]isoindol-2-yl]-1-methyl-1,8-naphthyridin-2-one] and `C[C@@H]1CN(c2cc(=O)n(C)c3ncccc23)C[C@@H]2c3ccc(C4CCNCC4)cc3CN12` [Example 24, 4-[(4R,10bS)-4-methyl-8-(4-piperidyl)-3,4,6,10b-tetrahydro-1H-pyrazino[2,1-a]isoindol-2-yl]-1-methyl-1,8-naphthyridin-2-one] are within 1.5-fold of each other in IC50: 213 nM for the first, 156 nM for the second.

`C[C@@H]1CN(c2cc(=O)n(C)c3ncccc23)C[C@@H]2c3ccc(C4CCCNC4)cc3CN12` (stereo partly drawn) [Example 25, 4-[(4R,10bS)-4-methyl-8-(3-piperidyl)-3,4,6,10b-tetrahydro-1H-pyrazino[2,1-a]isoindol-2-yl]-1-methyl-1,8-naphthyridin-2-one] and `C[C@@H]1CN(c2cc(=O)n(C)c3ncccc23)C[C@@H]2c3ccc([C@H]4C[C@H]5COC[C@@H](C4)N5)cc3CN12` [Example 28A, 4-[(4R,10bS)-4-methyl-8-(endo-3-oxa-9-azabicyclo[3.3.1]nonan-7-yl)-3,4,6,10b-tetrahydro-1H-pyrazino[2,1-a]isoindol-2-yl]-1-methyl-1,8-naphthyridin-2-one] are within 1.5-fold of each other in IC50: 124 nM for the first, 153 nM for the second.

`C[C@@H]1CN(c2cc(=O)n(C)c3ncccc23)C[C@@H]2c3ccc([C@H]4CC[C@H](N5CCOCC5)CC4)cc3CN12` [Example 27A, 4-[(4R,10bS)-4-methyl-8-(trans-4-morpholinocyclohexyl)-3,4,6,10b-tetrahydro-1H-pyrazino[2,1-a]isoindol-2-yl]-1-methyl-1,8-naphthyridin-2-one] and `C[C@@H]1CN(c2cc(=O)n(C)c3ncccc23)C[C@@H]2c3ccc([C@H]4CC[C@@H](N5CCOCC5)CC4)cc3CN12` [Example 27B, 4-[(4R,10bS)-4-methyl-8-(cis-4-morpholinocyclohexyl)-3,4,6,10b-tetrahydro-1H-pyrazino[2,1-a]isoindol-2-yl]-1-methyl-1,8-naphthyridin-2-one] are within 1.5-fold of each other in IC50: 99 nM for the first, 105 nM for the second.

`C[C@@H]1CN(c2cc(=O)n(C)c3ncccc23)C[C@@H]2c3ccc([C@@H]4C[C@H]5COC[C@@H](C4)N5)cc3CN12` [Example 28B, 4-[(4R,10bS)-4-methyl-8-(exo-3-oxa-9-azabicyclo[3.3.1]nonan-7-yl)-3,4,6,10b-tetrahydro-1H-pyrazino[2,1-a]isoindol-2-yl]-1-methyl-1,8-naphthyridin-2-one] and `CCn1c(=O)cc(N2C[C@@H](C)N3Cc4cc(N5C[C@@H](N)[C@H](OC)C5)ccc4[C@H]3C2)c2cccnc21` [Example 29, 4-[(4R,10bS)-8-[(3R,4R)-3-amino-4-methoxy-pyrrolidin-1-yl]-4-methyl-3,4,6,10b-tetrahydro-1H-pyrazino[2,1-a]isoindol-2-yl]-1-ethyl-1,8-naphthyridin-2-one] are within 1.5-fold of each other in IC50: 255 nM for the first, 340 nM for the second.
